Source: patent publication US20240392239A1, “METHODS FOR MODULATING CELL PLURIPOTENCY AND SELF-RENEWAL PROPERTY” (Memorial Sloan-Kettering Cancer Center, priority 2021, published 2024)

Experiments:
[1] = system: Acly-edited ESCs; conditions: 2i/LIF withdrawal for 40 h; 5 mM sodium acetate (FIG. 12F)
Description: Viability assays. Serum/LIF+2i-adapted ESCs were seeded at a density of 24,000 cells per well of a 24-well plate in triplicate or quadruplicate. 24 h later, cells were washed with PBS and changed into either fresh scrum/LIF+2i medium or medium containing a 1:1 mix of glutamine-free DMEM and Neurobasal medium including N-2 supplement, B-27 supplement, 2-mercaptoethanol and 2 mM L-glutamine for 40 h. Cells were evaluated for propidium iodide (PI) on an LSRFortessa flow cytometer using FACSDiva software v8.0 (BD Biosciences). Analysis of PI exclusion was performed with FCS Express v.7.05 or FlowJo v10.8.0.

[2] = system: ESC; conditions: previous reports (ref 39); cited from earlier work
[3] = system: control and Acly-edited ESCs; conditions: labeled acetate, 5 mM; 40 h of 2i/LIF withdrawal (FIG. 12D)
Description: Fatty acid analyses. To analyze fatty acids in scrum/LIF+2i-cultured ESCs undergoing exit from pluripotency, ESCs were seeded in maintenance medium in six-well plates overnight. The next day, cells were washed with PBS and changed into medium containing a 1:1 mix of glutamine-free DMEM and Neurobasal medium including N-2 supplement, B-27 supplement, 2-mercaptoethanol and 2 mM L-glutamine. […] At harvest, lysates were collected in PBS and centrifuged at 6,800 g for 5 min to pellet cells. To isolate fatty acids, cell pellets were resuspended in 400 μl HPLC grade methanol followed by 800 μl HPLC grade chloroform and samples were vortexed for 10 min at 4° C. 300 μl HPLC grade water then added to induce phase separation. 800 μl of the bottom chloroform layer was moved to a new tube and lyophilized. Dried samples were saponified by resuspending in 1 ml of 80% methanol with 0.3 M KOH and heating at 80° C. for 1 h in a glass vial. […]
Liquid chromatography-mass spectrometry. […] Metabolite quantitation was performed using a Q Exactive HF-X Hybrid Quadrupole-Orbitrap Mass Spectrometer equipped with an Ion Max API source and H-ESI II probe, coupled to a Vanquish Flex Binary UHPLC system (Thermo Scientific). […] Metabolites were detected over mass range of 70-1050 m/z in full scan positive mode, or SIM in positive mode using a quadrupole isolation window of 0.7 m/z. […]

[4] = system: control and Acly-edited ESCs
Description: Quantification of gene expression. RNA was isolated from six-or twelve-well plates using TRIzol (Invitrogen) according to the manufacturer's instructions and 200 ng RNA was used for complementary DNA (cDNA) synthesis using the iScript cDNA Synthesis Kit (Bio-Rad). Quantitative real-time PCR analysis was performed in technical triplicate using QuantStudio 5 or 6 Flex (Applied Biosystems) with Power SYBR Green Master Mix (Thermo Fisher Scientific). All data were generated using cDNA from 3 independent wells for each condition. Actin was used as an endogenous control for all experiments. See Supplementary Table 1 for qRT-PCR primer sequences.

[5] = system: Acly-edited ESCs; conditions: 2i/LIF withdrawal for 40 h, 5 mM sodium acetate (FIG. 12E)
Description: Western blotting. Protein lysates were extracted in 1×RIPA buffer (Cell Signaling Technology), separated by SDS-polyacrylamide gel electrophoresis and transferred to nitrocellulose membranes (Bio-Rad). For histone blots, cell pellets were flash frozen in ethanol and resuspended in Laemmli buffer for sonication. Samples were mixed with 5% BME and 0.01% bromophenol blue prior to identical separation as for protein lysates. Membranes were blocked in 3% milk in Tris-buffered saline with 0.1% Tween 20 (TBST) or 5% BSA in TBST and incubated at 4° C. with primary antibodies overnight. After TBST washes the next day, membranes were incubated with horseradish peroxidase-conjugated secondary antibodies for at least 2 h, incubated with enhanced chemiluminescence (Thermo Fisher Scientific) and imaged with an SRX-101A X-ray Film Processor (Konica Minolta). […]

[6] = system: mouse embryonic stem cells (ESCs); experiment: [U-13C] glucose tracing of TCA cycle metabolites in mouse embryonic stem cells; assay type: cell-based
Description: Metabolic analyses. […] For mass spectrometric analyses in C2C12 myoblasts and NSCLC cell lines, cells were seeded in six-well plates and medium was changed 24 h later. […] 48 h prior to harvest, myoblasts were supplemented with 1 μg/mL doxycycline to induce shRNA expression. For analysis of myotubes, cells seeded in six-well plates were grown to 100% confluence for 3 days, washed with PBS and changed to differentiation medium that was refreshed every day for 7 days. On the final day of differentiation, cells were washed with PBS and changed to experimental medium described above. For analysis of C2C12 myotube genetic hairpin lines, cells were processed as described above but medium was supplemented with 1 μg/mL doxycycline for the final four days of differentiation to induce shRNA expression. ESCs and NSCLC lines treated with inhibitors were processed as described above but medium was supplemented with DMSO, 50 μM BMS-303141 (catalog no. SML0784; […] Sigma) or 10 μM UK-5099 (catalog no. 4186; Tocris) for 24 h prior to harvest. […] After overnight incubation at -80° C., lysates were collected and centrifuged at 21,000 g for 20 min to remove protein. All extracts were further processed by LCMS (for analysis of NADH, lactate and pyruvate (deuterium labeling and lactate/pyruvate ratio) and succinate (deuterium labeling only) or GCMS (for all other analyses) as described below. Gas chromatography-mass spectrometry. […] Metabolites were further derivatized by adding 80 μl of N-methyl-N-(trimethylsilyl) trifluoroacetamide+1% TCMS (Thermo Fisher Scientific) and 70 μl ethyl acetate (Sigma-Aldrich) and then incubated at 37° C. for 30 min. Samples were analyzed using an Agilent 7890A Gas Chromatograph coupled to an Agilent […] mass selective detector. The gas chromatograph was operated in splitless injection mode with constant helium gas flow at 1 ml min^-1; 1 μl of derivatized metabolites was injected onto an HP-5 ms column and the gas chromatograph oven temperature ramped from 60 to 290° C. for 25 min. Peaks representing compounds of interest were extracted and integrated using the MassHunter software v.B.08 (Agilent Technologies) and then normalized to both the internal standard (d5-2HG) peak area and protein content of triplicate samples as determined by bicinchoninic acid assay (Thermo Fisher Scientific). Steady-state metabolite pool levels were derived by quantifying the following ions: d5-2HG, 354 m/z; αKG, 304 […]; citrate, 465 m/z; fumarate, 245 m/z; malate, 335 m/z; and succinate, 247 m/z. All peaks were manually inspected and verified relative to known spectra for each metabolite. Enrichment of [^13C] or [^2H] was assessed by quantifying the abundance of the following ions: aspartate, 334-346 m/z; citrate, 465-482 m/z; fumarate, 245-254 m/z; and malate, 335-347 m/z. […]

[7] = system: control and Acly-edited ESCs; conditions: 2i/LIF withdrawal for 40 h with 5 mM sodium acetate, reseeded into 2i and LIF (FIG. 12K)
Excerpt: Colony formation assay. […] Medium was refreshed every 3 days.

[8] = system: non-small cell lung cancer (NSCLC) cell lines (H2170, A549, Calu-1); experiment: Isotope tracing ([U-13C] glucose or [U-13C] glutamine) of TCA cycle metabolites in NSCLC cell lines; assay type: cell-based, human; conditions: 50 μM for 24 h
Description: (§1) C2C12 cells were maintained at sub-confluence as myoblasts unless otherwise noted. All myoblast experiments were performed in high glucose DMEM supplemented with 10% FBS and 4 mM L-glutamine. For differentiation into myotubes, C2C12 cells were grown to 100% confluence for three days and then washed with PBS and changed into differentiation medium composed of high glucose DMEM supplemented with 2% horse serum (catalog no. 26050070; Gibco), 4 mM L-glutamine and 100× insulin-transferrin-selenium-ethanolamine (ITS-X; catalog no. 51500056; Gibco) for the indicated length of time (3, 5 or 7 days). Differentiation medium was refreshed every day. For non-small cell lung cancer (NSCLC) cell line studies, H2170, A549, and Calu-1 cell lines were thawed and passaged in RPMI-1640 supplemented with 10% FBS before being transitioned to high glucose DMEM supplemented with 10% FBS and 4 mM L-glutamine for several passages prior to experiments. 143B cells were maintained in high glucose DMEM supplemented with sodium pyruvate, 10% FBS and penicillin-streptomycin. All cells routinely tested negative for Mycoplasma.
For mass spectrometric analyses in C2C12 myoblasts and NSCLC cell lines, cells were seeded in six-well plates and medium was changed 24 h later. […] 48 h prior to harvest, myoblasts were supplemented with 1 μg/mL doxycycline to induce shRNA expression. For analysis of myotubes, cells seeded in six-well plates were grown to 100% confluence for 3 days, washed with PBS and changed to differentiation medium that was refreshed every day for 7 days. On the final day of differentiation, cells were washed with PBS and changed to experimental medium described above. For analysis of C2C12 myotube genetic hairpin lines, cells were processed as described above but medium was supplemented with 1 μg/mL doxycycline for the final four days of differentiation to induce shRNA expression. ESCs and NSCLC lines treated with inhibitors were processed as described above but medium was supplemented with DMSO, 50 μM BMS-303141 (catalog no. SML0784; Sigma), 5 mM dichloroacetate (catalog no. 3447795; Sigma) or 10 μM UK-5099 (catalog no. 4186; Tocris) for 24 h prior to harvest. At harvest, metabolites were extracted with 1 mL ice-cold 80% methanol containing 2 μM deuterated 2-hydroxyglutaratc (d-2-hydroxyglutaric-2,3,3,4,4-d5 acid (d5-2HG)). […]
(§2) Gas chromatography-mass spectrometry. […] Samples were analyzed using an Agilent 7890A Gas Chromatograph coupled to an Agilent 5977C mass selective detector. […] Peaks representing compounds of interest were extracted and integrated using the MassHunter software v.B.08 (Agilent Technologies) and then normalized to both the internal standard (d5-2HG) peak area and protein content of triplicate samples as determined by bicinchoninic acid assay (Thermo Fisher Scientific). […]

[9] = system: Rex1::GFPd2 ESCs; experiment: Exit from naïve pluripotency, Rex1::GFPd2 reporter analysis; assay type: cell-based, mouse; conditions: 2i/LIF withdrawal for 40 h; 50 μM (FIG. 4I)
Description: 2i/LIF-cultured ESCs were seeded at least 24 h prior to being washed with PBS and changed into serum-free maintenance medium without 2i or LIF at the indicated time before harvest (12, 24 or 40 h). Unless otherwise noted, cells were adapted to serum/LIF+2i culture prior to exit from naïve pluripotency.
Rex1::GFPd2 analysis. On the day of analysis, cells were trypsinized and resuspended in FACS buffer (PBS+2% FBS+1 mM EDTA) containing 4,6-diamidino-2-phenylindole (DAPI, 1 μg/mL). […] Viable cells were those excluding DAPI. Rex1::GFPd2 expression was measured by GFP mean fluorescence intensity (MFI) and quantified using FCS Express v7.0.5 or FlowJo v10.8.0.

[10] = system: ASNase-expressing 143B human osteosarcoma cells; experiment: [U-13C] asparagine tracing in ASNase-expressing 143B cells; assay type: cell-based; conditions: 50 μM for 24 h (FIGS. 6E and 6F)
Description: 143B cells were plated in six-well plates; 24 h later, media was changed to DMEM supplemented with 10% dialyzed FBS, 1 mM asparagine and DMSO or 50 μM BMS-303141. After 20 h, media was changed to DMEM supplemented with 10% dialyzed FBS, 1 mM [U-^13C]asparagine and DMSO or 50 μM BMS-303141. Cells were extracted with 300 μL 80% methanol containing Valine-D8 as an internal control. 143B extracts were further processed by LCMS, described below.
Liquid chromatography-mass spectrometry.

[11] = system: C2C12 myoblasts; experiment: [U-13C] glucose tracing of TCA cycle metabolites in C2C12 myoblasts; assay type: cell-based, mouse
Description: as §1, with “143B cells were maintained in high glucose DMEM supplemented with sodium pyruvate, 10% FBS and penicillin-streptomycin. All cells routinely tested negative for Mycoplasma.” left out
as §2

[12] = [U-13C] glucose, three NSCLC cell lines (FIG. 6B)

For CC(=O)[O-].[Na+] [acetate, sodium acetate], the “decline in viability observed in Acly-edited clones” value [1] is listed as “only minimally rescued”, the ESC self-renewal [2] is listed as “promotes” and the “de novo lipid synthesis (fractional labeling of palmitate)” value [3] is listed as “contributed”. The “markers of naïve pluripotency” value ([4]; 2i/LIF withdrawal for 40 h, 5 mM sodium acetate (FIGS. 12I-12J)) was “tended to increase”, the “effects of ACL loss on exit from pluripotency” value ([4]; Acly-edited ESCs, 5 mM sodium acetate, qRT-PCR, Rex1::GFPd2 MFI and AP-positive colonies (FIGS. 12I-12K)) was “does not reverse” and the histone acetylation [5] was “restored”. For the same compound, the “processivity (malate m+2/citrate m+2 ratio)” value ([6]; S/L-cultured ESCs, 5 mM sodium acetate for 24 h (FIGS. 15A-15D)) was “enhances” and the “colony formation ability (AP-positive colonies)” value [7] was “tended to increase”.
For COc1ccc(-c2ccccc2)cc1NS(=O)(=O)c1cc(Cl)cc(Cl)c1O [BMS-303141], the “mal+2/cit+2 ratio” value ([8]; [U-13C] glucose, three NSCLC cell lines (FIG. 1E)) was “increased”, the “fraction of citrate m+2” value [8, 12] was “only a minor effect” and the “proportion of malate containing two labeled carbons (malate m+2)” value [8, 12] was “increased”. The glutamine anaplerosis ([8]; [U-13C] glutamine, three NSCLC cell lines (FIG. 6C)) was “did not uniformly affect”, the “downregulation of Rex1::GFPd2 reporter activity following 2i/LIF withdrawal” value [9] was “almost completely prevented” and the “decrease in enrichment of the m+2 isotopologue of malate relative to citrate (Mal+2/Cit+2)” value ([6]; [U-13C] glucose, serum/LIF ESCs, 50 μM for 24 h (FIG. 2B)) was “mitigated”. For the same compound, the “ratio of cit+2/cit+4” value [10] was “significantly increased”.
In the case of N#C/C(=C\c1cn(-c2ccccc2)c2ccccc12)C(=O)O [UK-5099], the “incorporation of glucose-derived carbons into TCA cycle metabolites” value ([6]; ESCs, 10 μM UK-5099 (MPCi) for 24 h (FIG. 10E)) is reported as “reduced”, the “mal+2/cit+2 ratio” value ([6]; ESCs, 10 μM UK-5099 (MPCi) for 24 h (FIG. 10F)) is reported as “repressed” and the “incorporation of glucose-derived carbons into TCA cycle metabolites” value ([11]; 10 μM UK-5099 (MPCi) for 24 h (FIG. 10C)) is reported as “reduced”. The “mal+2/cit+2 ratio” value ([11]; 10 μM UK-5099 (MPCi) for 24 h (FIG. 10D)) was “repressed”.
